In patent US20240025906A1 (NEURON23, INC., priority 2022, published 2024):

Legend:
TYK2 JH2 = molecular target: T1, TYK2 JH2 (Homo sapiens, UniProt P29597); experiment: TYK2 JH2 binding assay (KINOMEscan KdELECT competitive binding); settings: TYK2 JH2 domain, KINOMEscan KdELECT (Assay A); read-out: Biochemical TYK2_JH2_Kd
T1 construct: purchased DiscoverX (KINOMEscan KdELECT service); host or cells: E. coli BL21-derived (T7 phage display) or HEK-293
In short: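 The assay measures displacement of DNA- or phage-tagged TYK2 pseudokinase domain from an affinity resin; compound binding lowers the amount captured, read by qPCR. Incubation lasts 1 h at room temperature.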

[1] = system: JAK1/TYK2 pSTAT5 (Tyr694/699) in THP-1 cell line; experiment: IFNa-stimulated JAK1/TYK2 pSTAT5 (Tyr694/699) inhibition cellular assay, AlphaLISA; format: cell-based; settings: Homo sapiens; THP-1 cells, IFNa-stimulated, AlphaLISA (Assay B); read-out: Cellular THP1_IFNa-pSTATS_IC50
In short: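 THP-1 cells (2e4/well in HBSS) were preincubated with compound (8 points, 6-fold steps from 10000 nM final) for 1 h at 37 °C, then stimulated with IFNa (added at 100 ng/mL) for 30 min. Lysate pSTAT5 was read by AlphaLISA at 615 nm. IC50 came from a 4-parameter fit with bottom 0 and Hill −1.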

T1 sequence (P29597 589-875 limits assumed): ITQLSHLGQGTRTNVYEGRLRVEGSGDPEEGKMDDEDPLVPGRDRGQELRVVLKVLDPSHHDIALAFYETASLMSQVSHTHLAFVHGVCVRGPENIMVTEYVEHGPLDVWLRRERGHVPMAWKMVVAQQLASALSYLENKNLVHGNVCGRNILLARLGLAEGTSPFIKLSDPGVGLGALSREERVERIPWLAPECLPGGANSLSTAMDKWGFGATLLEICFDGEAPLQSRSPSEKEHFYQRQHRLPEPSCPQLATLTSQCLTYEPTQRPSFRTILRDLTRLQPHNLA

Structure (SMILES) | Kd (TYK2 JH2) [nM] | IC50 [1] [nM]
CNc1ncc(C#CC(=O)C2CC2)c2cc(NC(=O)C3CC3)ncc12 [Example 127, N-(5-(3-cyclopropyl-3-oxoprop-1-yn-1-yl)-8-(methylamino)-2,7-naphthyridin-3-yl)cyclopropanecarboxamide] | ≤ 100 | > 500
CCC(=O)c1cnc(NC)c2cnc(NC(=O)C3CC3)cc12 [Example 128, N-((methylamino)-5-propionyl-2,7-naphthyridin-3-yl)cyclopropanecarboxamide] | ≤ 100 | > 500
C/C=C/c1cnc(NC)c2cnc(NC(=O)C3CC3)cc12 [Example 129, (E)-N-(8-(methylamino)-5-(prop-1-en-1-yl)-2,7-naphthyridin-3-yl)cyclopropanecarboxamide] | ≤ 100 | > 500
CNc1ncc(-c2cnc(C)o2)c2cc(NC(=O)C3CC3)ncc12 [Example 130, N-(8-(methylamino)-5-(2-methyloxazol-5-yl)-2,7-naphthyridin-3-yl)cyclopropanecarboxamide] | ≤ 100 | > 500
CNc1ncc(-c2ccn(Cc3ccccc3)n2)c2cc(NC(=O)C3CC3)ncc12 [Example 131, N-(5-(1-benzyl-1H-pyrazol-3-yl)-8-(methylamino)-2,7-naphthyridin-3-yl)cyclopropanecarboxamide] | ≤ 100 | > 500
CNc1ncc(-c2ccc(OC3CCN(C)CC3)cc2)c2cc(NC(=O)C3CC3)ncc12 [Example 132, N-(8-(methylamino)-5-(4-((1-methylpiperidin-4-yl)oxy)phenyl)-2,7-naphthyridin-3-yl)cyclopropanecarboxamide] | ≤ 100 | > 500
CNc1ncc(-c2ncc(C)o2)c2cc(NC(=O)C3CC3)ncc12 [Example 133, N-(8-(methylamino)-5-(5-methyloxazol-2-yl)-2,7-naphthyridin-3-yl)cyclopropanecarboxamide] | ≤ 100 | > 500
CNc1ncc(Nc2ccccc2)c2cc(NC(=O)C3CC3)ncc12 [Example 134, N-(8-(methylamino)-5-(phenylamino)-2,7-naphthyridin-3-yl)cyclopropanecarboxamide] | 100 to 1000 | > 500
CNc1ncc(/C=C/c2ccc(OC)cc2)c2cc(NC(=O)C3CC3)ncc12 [Example 135, (E)-N-(5-(4-methoxystyryl)-8-(methylamino)-2,7-naphthyridin-3-yl)cyclopropanecarboxamide] | ≤ 100 | ≤ 500
C=C(c1ccc(OC)cc1)c1cnc(NC)c2cnc(NC(=O)C3CC3)cc12 [Example 136] | 100 to 1000 | > 500
CNc1ncc(C#Cc2ccccc2)c2cc(NC(=O)C3CC3)ncc12 [Example 137, N-(8-(methylamino)-5-(phenylethynyl)-2,7-naphthyridin-3-yl)cyclopropanecarboxamide] | ≤ 100 | ≤ 500
CNc1ncc(-c2cc(C)ns2)c2cc(NC(=O)C3CC3)ncc12 [Example 138, N-(8-(methylamino)-5-(3-methylisothiazol-5-yl)-2,7-naphthyridin-3-yl)cyclopropanecarboxamide] | ≤ 100 | > 500
CNc1ncc(-c2nc3ccccc3[nH]2)c2cc(NC(=O)C3CC3)ncc12 [Example 139, N-(5-(1H-benzo[d]imidazol-2-yl)-8-(methylamino)-2,7-naphthyridin-3-yl)cyclopropanecarboxamide] | ≤ 100 | > 500
CNc1ncc(-c2nc(C)c[nH]2)c2cc(NC(=O)C3CC3)ncc12 [Example 140, N-(5-(4-methyl-1H-imidazol-2-yl)-8-(methylamino)-2,7-naphthyridin-3-yl)cyclopropanecarboxamide] | ≤ 100 | > 500
CNc1ncc(-c2ncn(C)n2)c2cc(NC(=O)C3CC3)ncc12 [Example 141, N-(S-(1-methyl-1H-1,2,4-triazol-3-yl)-8-(methylamino)-2,7-naphthyridin-3-yl)cyclopropanecarboxamide] | ≤ 100 | > 500
CNc1ncc(-c2nc3ccccc3o2)c2cc(NC(=O)C3CC3)ncc12 [Example 142, N-(5-(benzo[d]oxazol-2-yl)-8-(methylamino)-2,7-naphthyridin-3-yl)cyclopropanecarboxamide] | ≤ 100 | ≤ 500
CNc1ncc(-c2ccc(C)o2)c2cc(NC(=O)C3CC3)ncc12 [Example 143, N-(8-(methylamino)-5-(5-methylfuran-2-yl)-2,7-naphthyridin-3-yl)cyclopropanecarboxamide] | ≤ 100 | ≤ 500

Structure (SMILES) | Kd (TYK2 JH2) [nM] | IC50 [1] [nM]
CNc1ncc(-c2ccc(C(=O)C3CC3)cc2)c2cc(NC(=O)C3CC3)ncc12 [Example 144, N-(5-(4-(cyclopropanecarbonyl)phenyl)-8-(methylamino)-2,7-naphthyridin-3-yl)cyclopropanecarboxamide] | ≤ 100 | > 500
CNc1ncc(-c2nc3ccccc3s2)c2cc(NC(=O)C3CC3)ncc12 [Example 145, N-(5-(benzo[d]thiazol-2-yl)-8-(methylamino)-2,7-naphthyridin-3-yl)cyclopropanecarboxamide] | ≤ 100 | ≤ 500
CCn1ccc(-c2cnc(NC)c3cnc(NC(=O)C4CC4)cc23)n1 [Example 147, N-(5-(1-ethyl-1H-pyrazol-3-yl)-8-(methylamino)-2,7-naphthyridin-3-yl)cyclopropanecarboxamide] | ≤ 100 | ≤ 500
CNc1ncc(-c2ccn(C(C)C)n2)c2cc(NC(=O)C3CC3)ncc12 [Example 148, N-(5-(1-isopropyl-1H-pyrazol-3-yl)-8-(methylamino)-2,7-naphthyridin-3-yl)cyclopropanecarboxamide] | ≤ 100 | ≤ 500
CNc1ncc(-c2ccn(CC(C)C)n2)c2cc(NC(=O)C3CC3)ncc12 [Example 149, N-(5-(1-isobutyl-1H-pyrazol-3-yl)-8-(methylamino)-2,7-naphthyridin-3-yl)cyclopropanecarboxamide] | ≤ 100 | > 500
CNc1ncc(-c2ccn(Cc3ncn(C)n3)n2)c2cc(NC(=O)C3CC3)ncc12 [Example 150, N-(5-(1-((1-methyl-1H-1,2,4-triazol-3-yl)methyl)-1H-pyrazol-3-yl)-8-(methylamino)-2,7-naphthyridin-3-yl)cyclopropanecarboxamide] | ≤ 100 | > 500
CNc1ncc(-c2ccn(Cc3nccs3)n2)c2cc(NC(=O)C3CC3)ncc12 [Example 151, N-(8-(methylamino)-5-(1-(thiazol-2-ylmethyl)-1H-pyrazol-3-yl)-2,7-naphthyridin-3-yl)cyclopropanecarboxamide] | ≤ 100 | > 500
CNc1ncc(-c2ccn(Cc3noc(C)n3)n2)c2cc(NC(=O)C3CC3)ncc12 [Example 152, N-(5-(1-((5-methyl-1,2,4-oxadiazol-3-yl)methyl)-1H-pyrazol-3-yl)-8-(methylamino)-2,7-naphthyridin-3-yl)cyclopropanecarboxamide] | ≤ 100 | > 500
CNc1ncc(-c2ccn(CC3CCSCC3)n2)c2cc(NC(=O)C3CC3)ncc12 [Example 153A, N-(8-(methylamino)-5-(1-((tetrahydro-2H-thiopyran-4-yl)methyl)-1H-pyrazol-3-yl)-2,7-naphthyridin-3-yl)cyclopropanecarboxamide] | ≤ 100 | > 500
CNc1ncc(-c2ccn(CC3CCS(=O)(=O)CC3)n2)c2cc(NC(=O)C3CC3)ncc12 [Example 153B, N-(5-(1-((1,1-dioxidotetrahydro-2H-thiopyran-4-yl)methyl)-1H-pyrazol-3-yl)-8-(methylamino)-2,7-naphthyridin-3-yl)cyclopropanecarboxamide] | ≤ 100 | > 500
CNc1ncc(-c2ccn(Cc3ccccn3)n2)c2cc(NC(=O)C3CC3)ncc12 [Example 154, N-(8-(methylamino)-5-(1-(pyridin-2-ylmethyl)-1H-pyrazol-3-yl)-2,7-naphthyridin-3-yl)cyclopropanecarboxamide] | ≤ 100 | > 500
CNc1ncc(-c2nc3ccccn3n2)c2cc(NC(=O)C3CC3)ncc12 [Example 155, N-(5-([1,2,4]triazolo[1,5-a]pyridin-2-yl)-8-(methylamino)-2,7-naphthyridin-3-yl)cyclopropanecarboxamide] | ≤ 100 | ≤ 500
CNc1ncc(-c2ccn3nc(N4CCC4)nc3c2)c2cc(NC(=O)C3CC3)ncc12 [Example 156, N-(5-(2-(azetidin-1-yl)-[1,2,4]triazolo[1,5-a]pyridin-7-yl)-8-(methylamino)-2,7-naphthyridin-3-yl)cyclopropanecarboxamide] | ≤ 100 | > 500
CNc1ncc(-c2nc(-c3ccccc3)co2)c2cc(NC(=O)C3CC3)ncc12 [Example 157, N-(8-(methylamino)-5-(4-phenyloxazol-2-yl)-2,7-naphthyridin-3-yl)cyclopropanecarboxamide] | ≤ 100 | ≤ 500
O=C(Nc1cc2c(-c3ccccc3)cnc(NCCO)c2cn1)C1CC1 [Example 160, N-(8-((2-hydroxyethyl)amino)-5-phenyl-2,7-naphthyridin-3-yl)cyclopropanecarboxamide] | ≤ 100 | > 500
CNc1ncc(-c2ccccc2)c2cc(NC(=O)C3(F)CC3)ncc12 [Example 161, 1-fluoro-N-(8-(methylamino)-5-phenyl-2,7-naphthyridin-3-yl)cyclopropane-1-carboxamide] | ≤ 100 | > 500
